# In article PMC6290023 (Scientific Reports, 2018):
# Peptide text beside a SMILES is read from it.
# Legend:
# [1] = Safety in normal mice (blood biochemistry); type: in vivo, mouse; details: intravenous injection and continuous subcutaneous injection with Alzet pump, 24 h post-injection
# [2] = Pharmacokinetics after intravenous injection 4 h after tMCAo (LC/MS/MS); type: in vivo; details: mouse, i.v. 2 mg/ml, 10 ml/kg in 0.45% saline
# Experimental: MHP1-Ac or MHP1-AcN (2 mg/ml, 10 ml/kg in 0.45% saline) was administered intravenously 4 hrs after tMCAo and mouse plasma was collected at 5 min, 10 min, 20 min, 30 min, 45 min, 1 h, and 2 h after injection. Mouse plasma (C57BL6J, 10 µL) and water/phosphoric acid (24:1, v/v) (Solution B, 500 µL) were mixed together to prepare the plasma samples. The samples (510 µL) were then analyzed using LC/MS/MS to determine MHP1-Ac or MHP1-AcN in plasma. Mouse brain was weighed and mixed with a 4-fold volume of solution B and the mixture was homogenized to prepare the brain samples. The specific gravity of solution B was assumed to be 1. The brain samples (10 µL) were analyzed using LC/MS/MS to determine MHP1-Ac or MHP1-AcN in brain. MHP1-Ac and MHP1-AcN, and MHP1-N (internal standard), in the plasma samples and brain samples, were extracted using Oasis HLB μElution Plate (Waters). Chromatographic analysis was performed on an InertSustain C18 (2.1 mm I.D. ×50 mm, 3 µm, GL Sciences) column using the mobile phase A, water/formic acid (1000:1, v/v), and the mobile phase B, acetonitrile/formic acid (1000:1, v/v).
# [3] = test system: LPS-stimulated MG6 cells; experiment: Anti-inflammatory effect in LPS-stimulated MG6 cells (TNF-α / IL-6 ELISA); type: cell-based, mouse
# Experimental: MG6 cells were obtained from RIKEN BRC (Tsukuba, Japan)[25],[26]. The MG6 cells were maintained in DMEM (Nakarai, Kyoto, Japan) supplemented with 10% FBS (Thermo Fisher Scientific, Waltham, MA, USA), 10 μg/ml insulin (Sigma-Aldrich, St. Louis, MO, USA) and 100 μM 2-mercaptoethanol (Sigma-Aldrich). These cells (1 × 10^5 cells) were plated in 96-well plastic culture dishes. After overnight incubation, the medium was replaced with DMEM supplemented with 4% FBS. LPS (Escherichia coli 0111: B4; Sigma-Aldrich, St. Louis, MO, USA) and MHP1 or modified MHP1 was added to the medium, which was then harvested at 24 h after stimulation. In the experiment checking the stability at 26 or 37 °C, MHP1-Ac or MHP1-AcN was incubated at 26 or 37 °C for 24 h before adding to the medium.
# The concentrations of TNF-α and IL-6 were measured using commercially available ELISA kits: TNF-α, Quantikine Mouse TNF-α ELISA Kit (R&D systems); IL-6, Quantikine Mouse IL-6 ELISA Kit (R&D systems).
# [4] = test system: FeCl3-induced thrombosis model in CCA; experiment: FeCl3-induced thrombosis model in CCA, thrombolysis with tPA; type: in vivo; details: mouse, MHP1-AcN 150 μg/mice combined with tPA 10 mg/kg, 30 min after CCA occlusion
# Experimental: (§1) The ischemic damage was evaluated at 48 h after MCAo in sections stained with cresyl violet. Coronal sections (12 μm thickness) were made at −1.4, −0.7, 0, 0.7 and 1.4 mm from the bregma, mounted on the stereomicroscope and photographed. The volume of the infarct was calculated by the sum of each area of all sections corrected by cerebral edema and multiplied by the thickness of the slices. In the experiment of tPA-induced hemorrhage, PE10-catheter was placed in the right internal jugular vein at 6 h after ischemia. The nylon suture was then removed and 10% of the MHP-AcN mixture (150 µg/mice) and tPA (10 mg/kg) were injected followed by continuous injection of residual mixture of MHP1-AcN and tPA using a syringe pump (UNIVENTOR 400 ANAESTHESIA UNIT, ZTN, MALTA). In the experiment of FeCl3 -induced thrombosis model in CCA, a piece of filter paper soaked in 7.5% FeCl3 was placed on the right CCA for 1 min and it was rinsed with saline. Blood flow was recorded by using a laser speckle blood flow imager (OMEGAZONE OZ-2, OMEGAWAVE, INC., Tokyo, Japan). tPA (10 mg/kg) or mixture of MHP1-AcN (150 μg/mice) and tPA was started to be administered at 30 min after CCA occlusion.
# [5] = test system: tMCAo model in mice; experiment: Transient middle cerebral artery occlusion (tMCAo) model; type: in vivo; details: mouse tMCAo; for reduction of infarct volume: 150 μl i.v. 6 h after MCAo then s.c. Alzet pump 24 h; for neurological deficits (neurological severity score): start 6 h after MCAo
# Experimental: The plan of animal studies was approved by the Animal Committee of Graduate School of Medicine, Osaka University (25-029-012), and all animal experiments were carried out in accordance with the guidelines of Osaka University. All surgeries were performed using isoflurane and all efforts were made to minimize suffering. The C57Bl6/J mice were obtained from CLEA Japan, Inc. The transient middle cerebral artery occlusion procedure was described previously (1). Briefly, the mice were anesthetized with isoflurane (1.4%). The cerebral blood flow (CBF) was measured using a laser Doppler flowmeter (Unique Acquisition software; Unique Medical, Osaka, Japan). A 6.0 monofilament surgical suture was advanced into the internal carotid artery to obstruct the origin of the middle cerebral artery. The filament was left in place for 40 min before withdrawal. For all the mice, the rectal temperature was maintained at 37.0 ± 0.5 °C during surgery and recovery period (until the animals regained consciousness). […] MHP1 (4 mg/ml in water) was diluted to 0.5, 1, or 2 mg/ml in 0.45% saline, and 150 μl of the MHP1 was injected intravenously at 6 or 8 h after the MCAo. MHP1 was subsequently injected subcutaneously for 24 hrs using Alzet mini-osmotic pump (2001D, DURECT Corporation, Cupertino, USA). The vehicle control for MHP1, 0.45% saline, was injected similarly.
# as §1
# [6] = LPS-stimulated MG6 cells, medium harvested 24 h after stimulation, ELISA
smiles,measurement,setting,value
CC[C@H](C)[C@H](NC(=O)[C@H](CO)NC(=O)[C@@H](NC(=O)[C@H](CCCCN)NC(=O)[C@@H](NC(=O)[C@@H](NC(=O)[C@H](Cc1ccc(O)cc1)NC(=O)[C@@H](NC(=O)[C@H](CCSC)NC(=O)[C@H](CC(C)C)NC(C)=O)C(C)C)C(C)C)C(C)C)[C@@H](C)O)C(=O)N[C@@H](CCCCN)C(=O)N[C@H](C(=O)N1CCC[C@H]1C(=O)N[C@@H](CO)C(=O)N[C@@H](CO)C(=O)N[C@@H](Cc1c[nH]cn1)C(=O)N[C@@H](CC(N)=O)C(=O)N[C@@H](CC(C)C)C(=O)N[C@@H](CCSC)C(=O)N[C@@H](CCCCN)C(=O)NCC(=O)NCC(=O)N[C@@H](CO)C(=O)N[C@H](C(=O)N[C@@H](CCCCN)C(=O)N[C@@H](CC(N)=O)C(=O)N[C@@H](Cc1c[nH]c2ccccc12)C(=O)N[C@@H](CO)C(=O)NCC(=O)N[C@@H](CC(N)=O)C(N)=O)[C@@H](C)O)[C@@H](C)CC [MHP1-AcN] (Ac-LMVYVVKTSIKIPSSHNLMKGGSTKNWSGN-NH2),blood biochemistry,[1],no abnormalities
same,level at 0.5 h,"[2]; C57BL6J, iv, 20 mg/kg, plasma, 30 min, read-out: intact peptide in plasma 30 min post-injection",~8000 ng/mL
same,time post-injection until which peptide was detected in the brain,"[2]; brain homogenate, last sampling 2 h",2 h
same,anti-inflammatory effects at 1 µg/ml,"[3]; LPS-stimulated MG6 cells, 1 µg/ml peptide",anti-inflammatory effects were seen
same,dose dependency of anti-inflammatory effects,"[3]; LPS-stimulated MG6 cells, 24 h, ELISA",Dose-dependent anti-inflammatory effects were observed
same,inhibition of IL-6 expression compared with MHP1,[3]; [6],more effective than MHP1
same,inhibition of TNF-α expression compared with MHP1,[3]; [6],more effective than MHP1
same,"expression of TNF-α with peptide pre-incubated at 4, 37 or 26 °C (retention of anti-inflammatory effect)","[3]; peptide incubated at 4, 37 or 26 °C for 24 h, then added to LPS-stimulated MG6 cells",no significant differences
same,effect on time of recanalization by tPA,[4],did not affect the time of recanalization
same,reduction of infarct volume,"[5]; 0.5 mg/ml, infarct at 48 h",effective
same,neurological deficits (neurological severity score),[5]; 0.5 mg/ml,significantly improved
same,reduction of infarct volume,"[5]; 1 mg/ml, infarct at 48 h",the most effective dose
same,neurological deficits (neurological severity score),[5]; 1 mg/ml,significantly improved
same,neurological deficit,"[5]; 1 mg/ml, start 8 h after ischemia, at 48 h after ischemia",significantly improved
same,infarct volume compared to saline-treated mice,"[5]; 1 mg/ml, start 8 h after ischemia, infarct at 48 h",tendency of reduction
same,reduction of infarct volume,"[5]; 2 mg/ml, infarct at 48 h",effective
same,neurological deficits (neurological severity score),[5]; 2 mg/ml,tendency of recovery
